For series [1] the following is noted: Crystal; DTA.
Series [2] in a line: Molar enthalpy of transition or fusion. The conditions noted are these: Crystal; DSC.

Numbers after ± are expanded uncertainties.

Regarding `O=C1COCCO1` [1,4-dioxan-2-one], the Normal melting temperature in series [1] is 28.26 ± 0.5 °C. Further, in series [2], the “Molar enthalpy of transition or fusion” value was 3.75 ± 0.0908 kcal/mol.

For the origin of these results see the NIST ThermoML archive (doi:10.1021/je050406x).
